Measurements as given in patent publication US5225528A, “Cyclic hexapeptide oxytocin antagonists” (priority 1990, dated 1993).
Like-named read-outs stand apart in the source and are kept apart here. Numbered stars: 1 amine (or outer) side, 2 acyl side, 3 side chain; on linkers, the order of the positions; unused ones are H or OH. Square brackets hold non-standard residues; d marks the D form. Peptide text beside a SMILES is read from it. * marks the point of attachment. X9 = O=C([C@@H]1CN(P(=O)(OCc2ccccc2)OCc2ccccc2)CCN1[*:1])[*:2]; X5 = CC(C)(C)OC(=O)CN1CCN([*:1])[C@H](C(=O)[*:2])C1; X4 = O=C([C@@H](Cc1cn(COCc2ccccc2)cn1)N[*:1])[*:2]; X10 = O=C(O)CN1CCN([*:1])[C@H](C(=O)[*:2])C1; Pip(4-aza) = O=C(O)[C@@H]1CNCCN1; dNMeF = CN[C@H](Cc1ccccc1)C(=O)O; Pip = O=C(O)[C@@H]1CCCCN1; dPip = O=C(O)[C@H]1CCCCN1; OtBu = CC(C)(C)O*

Tests used:
uterine OT receptors = target: T1, uterine OT receptors (Rattus norvegicus, UniProt P70536); test: [^3 H]OT binding to uterine OT receptors, crude membrane preparation of uteri from DES-treated rats; conditions: for inhibition at 1 µM: @ 1,000 (nM); for IC50: rat uterus membranes, 1 nM [^3 H]OT, read-out: Receptor Binding Results IC50 (nM) [^3 H]OT
T1 construct: from tissue; host or cells: uterus of DES-treated rats, crude membranes
T1 sequence (P70536 1-388): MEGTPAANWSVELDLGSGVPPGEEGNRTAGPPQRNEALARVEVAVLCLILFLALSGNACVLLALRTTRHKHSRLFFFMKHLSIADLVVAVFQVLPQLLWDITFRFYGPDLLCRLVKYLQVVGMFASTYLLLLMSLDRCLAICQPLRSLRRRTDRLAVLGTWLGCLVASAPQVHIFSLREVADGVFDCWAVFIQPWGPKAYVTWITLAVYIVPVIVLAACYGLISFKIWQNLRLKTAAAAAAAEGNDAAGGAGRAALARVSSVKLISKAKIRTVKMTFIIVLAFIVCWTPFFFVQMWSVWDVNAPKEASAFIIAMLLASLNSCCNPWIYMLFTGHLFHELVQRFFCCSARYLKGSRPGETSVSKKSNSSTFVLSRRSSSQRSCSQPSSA
Experimental: Competition studies were conducted at equilibrium (60 minutes; 22° C.) using 1 nM [^3 H]OT in the following assay buffer: 50 mM Tris-HCl, 5 mM MgCl2, and 0.1% BSA, pH 7.4.

AVP-V1 sites = target: T2, AVP-V1 sites (Rattus norvegicus, UniProt P30560); test: [^3 H]AVP binding to crude membrane preparation of male rat liver (AVP-V1 sites)
T2 construct: crude membrane preparation of male rat liver (AVP-V1 sites); from tissue; host or cells: male rat liver, crude membranes
Experimental: (§1) Nonspecific binding (5-10% of the total binding) was determined using 10 μM unlabeled AVP, and the binding reaction was terminated by filtration as described above for the [^3 H]OT binding assay.

AVP-V2 sites = target: T3, AVP-V2 sites (Rattus norvegicus, UniProt Q00788); test: [^3 H]AVP binding to crude membrane preparation of male rat kidney medulla (AVP-V2 sites); conditions: for inhibition at 10 µM: 0.5 h, read-out: [^3 H]-AVP-V2: percent inhibition of radioligand at the given concentration; for IC50: read-out: Receptor Binding Results IC50 (nM) [^3 H]-AVP-V2
T3 construct: male rat liver (AVP-V1 sites) or kidney medulla (AVP-V2 sites); from tissue; host or cells: male rat kidney medulla, crude membranes
Experimental: as §1

[1] = 1 h, read-out: [^3 H]OT: percent inhibition of radioligand at the given concentration
[2] = Receptor Binding Results IC50 (nM) [^3 H]-AVP-V1
[3] = rat kidney medulla membranes, 2 nM [^3 H]AVP

T2 sequence (P30560 whole entry): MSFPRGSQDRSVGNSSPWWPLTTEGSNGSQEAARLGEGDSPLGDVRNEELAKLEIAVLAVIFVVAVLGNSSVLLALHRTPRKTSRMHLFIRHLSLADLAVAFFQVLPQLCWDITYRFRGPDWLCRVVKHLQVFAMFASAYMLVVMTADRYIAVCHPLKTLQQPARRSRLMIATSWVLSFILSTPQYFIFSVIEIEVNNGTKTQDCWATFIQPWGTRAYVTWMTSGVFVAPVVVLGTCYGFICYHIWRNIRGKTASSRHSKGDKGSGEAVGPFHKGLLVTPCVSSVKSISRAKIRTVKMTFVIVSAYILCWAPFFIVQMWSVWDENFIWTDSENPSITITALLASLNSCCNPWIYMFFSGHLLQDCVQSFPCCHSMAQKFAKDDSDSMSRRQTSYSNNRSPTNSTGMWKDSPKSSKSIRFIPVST
T3 sequence (Q00788 whole entry): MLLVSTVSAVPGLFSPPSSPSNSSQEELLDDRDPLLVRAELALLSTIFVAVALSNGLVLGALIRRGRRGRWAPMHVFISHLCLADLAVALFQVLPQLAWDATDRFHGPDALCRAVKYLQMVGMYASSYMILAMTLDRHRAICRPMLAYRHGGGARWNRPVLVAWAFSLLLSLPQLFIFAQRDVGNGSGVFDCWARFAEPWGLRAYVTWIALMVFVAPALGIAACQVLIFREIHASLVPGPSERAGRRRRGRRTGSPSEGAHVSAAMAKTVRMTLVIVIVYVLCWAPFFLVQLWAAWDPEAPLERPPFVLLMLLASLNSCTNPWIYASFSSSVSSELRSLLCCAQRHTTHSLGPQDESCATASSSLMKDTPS

CC[C@H](C)[C@@H]1NC(=O)[C@@H](Cc2ccccc2)NC(=O)[C@@H]2CCCN2C(=O)[C@@H](Cc2cn(COCc3ccccc3)cn2)NC(=O)[C@@H]2CNCCN2C(=O)[C@H]2CCCCN2C1=O [Example 176, c-[D-Phenylalanyl-L-isoleucinyl-D-pipecolyl-L-piperazin-2-yl-D-histidinyl(BOM)-L-prolyl]] (cyclo([dF]I[dPip][Pip(4-aza)][X4]P))
inhibition at 1 µM (uterine OT receptors; [1]): 80% | IC50 (AVP-V1 sites; [2]): 10000 nM | inhibition at 10 µM (AVP-V2 sites; @ 10,000 (nM)): 81%

CC[C@H](C)[C@@H]1NC(=O)[C@@H](Cc2c[nH]c3ccccc23)NC(=O)[C@@H]2CCCN2C(=O)[C@@H](Cc2cn(COCc3ccccc3)cn2)NC(=O)[C@@H]2CNCCN2C(=O)[C@H]2CCCCN2C1=O [Example 177, c-[D-Tryptophanyl-L-isoleucinyl-D-pipecolyl-L-piperazin-2-yl-D-histidinyl(BOM)-L-prolyl]] (cyclo([dW]I[dPip][Pip(4-aza)][X4]P))
IC50 (uterine OT receptors): 76 nM | IC50 (AVP-V1 sites; read-out: Receptor Binding Results IC50 (nM) [^3 H]-AVP-V1): 16000 nM | IC50 (AVP-V2 sites): 12000 nM

CC[C@H](C)[C@@H]1NC(=O)[C@@H](Cc2ccccc2)NC(=O)[C@@H]2CCCN2C(=O)[C@@H](CC(=O)OC(C)(C)C)NC(=O)[C@@H]2CCCCN2C(=O)[C@H]2CCCCN2C1=O [Example 179, c-[D-Phenylalanyl-L-isoleucinyl-D-pipecolyl-L-pipecolyl-D-(β-t-butyl)aspartyl-L-prolyl]] (cyclo(I[dPip][Pip][dD](OtBu)P[dF]))
inhibition at 1 µM (uterine OT receptors; [1]): 63% | IC50 (AVP-V1 sites; [2]): > 10000 nM | IC50 (AVP-V2 sites; [3]): > 10000 nM

CC[C@H](C)[C@@H]1NC(=O)[C@@H](Cc2c[nH]c3ccccc23)NC(=O)[C@@H]2CCCN2C(=O)[C@@H](Cc2ccccc2)N(C)C(=O)[C@@H]2CN(CC(=O)OC(C)(C)C)CCN2C(=O)[C@H]2CCCCN2C1=O [Example 180, C-[D-Tryptophanyl-L-isoleucinyl-D-pipecolyl-L-piperazin-2-yl (4-t-butylacetyl)-D-(N^α -Me)phenylalanyl-L-prolyl]] (cyclo([dW]I[dPip][X5][dNMeF]P))
IC50 (uterine OT receptors): 150 nM | [^3 H]-AVP-V1: percent inhibition of radioligand at the given concentration (AVP-V1 sites; @ 10,000 (nM)): 44% | inhibition at 10 µM (AVP-V2 sites; @ 10,000 (nM)): 79%

CC[C@H](C)[C@@H]1NC(=O)[C@@H](Cc2c[nH]c3ccccc23)NC(=O)[C@@H]2CCCN2C(=O)[C@@H](Cc2ccccc2)N(C)C(=O)[C@@H]2CN(CC(=O)O)CCN2C(=O)[C@H]2CCCCN2C1=O [Example 181, c-[D-Tryptophanyl-L-isoleucinyl-D-pipecolyl-L-piperazin-2-yl(4-carboxymethyl)-D-(N^α -Me)phenylalanyl-L-prolyl]] (cyclo(I[dPip][X10][dNMeF]P[dW]))
IC50 (uterine OT receptors): 100 nM | IC50 (AVP-V1 sites; [2]): > 10000 nM | inhibition at 10 µM (AVP-V2 sites; @ 10,000 (nM)): 73%

CC[C@H](C)[C@@H]1NC(=O)[C@@H](Cc2cn(CC(=O)OC(C)(C)C)c3ccccc23)NC(=O)[C@@H]2CCCN2C(=O)[C@@H](Cc2ccccc2)N(C)C(=O)[C@@H]2CN(CC(=O)OC(C)(C)C)CCN2C(=O)[C@H]2CCCCN2C1=O [Example 182, c-[D-Tryptophanyl(t-butylacetyl)-L-isoleucinyl-D-pipecolyl-L-piperazin-2-yl(4-t-butylacetyl)-D-(N^α -Me)phenylalanyl-L-prolyl]]
inhibition at 1 µM (uterine OT receptors; [1]): 56% | IC50 (AVP-V1 sites; [2]): > 10000 nM | IC50 (AVP-V2 sites; [3]): > 10000 nM

CC[C@H](C)[C@@H]1NC(=O)[C@@H](Cc2c[nH]c3ccccc23)NC(=O)[C@@H]2CCCN2C(=O)[C@@H](Cc2ccccc2)N(C)C(=O)[C@@H]2CN(P(=O)(OCc3ccccc3)OCc3ccccc3)CCN2C(=O)[C@H]2CCCCN2C1=O [Example 183, c-[D-Tryptophanyl-L-isoleucinyl-D-pipecolyl-L-piperazin-2-yl(4-dibenzylphosphoramidyl)-D-(N^α -Me)phenylalanyl-L-prolyl]] (cyclo(I[dPip][X9][dNMeF]P[dW]))
inhibition at 0.1 µM (uterine OT receptors; [1]): 58% | IC50 (AVP-V1 sites; Receptor Binding Results IC50 (nM) [^3 H]-AVP-V1, rat liver membranes, 1 nM [^3 H]AVP): > 10000 nM | inhibition at 10 µM (AVP-V2 sites): 71%
